Reference: US9708314B2, “Heterocyclic amide compound” (NISSAN CHEMICAL INDUSTRIES, LTD., priority 2013, dated 2017)

Legend:
Format in all cases: in vivo
[1] = system: Echinochloa oryzacola Vasing.; test: Test Example 1: herbicidal activity, application before weed generation in submerged conditions; settings: Application herbicide amount 320 g/ha; Seventeenth Table
Procedure, shortened: (§1)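 Rating, on a six-step scale from almost no effect (0) to almost completely withered (5), was made three weeks after pre-emergence treatment. Treatment was surface application to flooded pots at g/ha rates, with plants kept at 25° C. to 30° C.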

[2] = system: Monochoria vaginalis; test: as above; settings: Application herbicide amount 320 g/ha; Seventeenth Table
Procedure, shortened: as §1

[3] = system: Scirpus juncoides; test: as above; settings: Application herbicide amount 320 g/ha; Seventeenth Table
Procedure, shortened: as §1

[4] = system: Abutilon theophrasti; test: Test Example 4: herbicidal effect by application to foliage (diluvial soil, plastic box); settings: application to foliage, application herbicide amount 320 g/ha
Procedure, shortened: (§2)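 Emulsion-formulated compound, diluted to a predetermined g/ha dose, applied by small sprayer to leaves and stems of 14-day-old seedlings grown in sterilized diluvial soil. Effect rated on 0–5 herbicidal-ratio scale three weeks on.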

[5] = system: Alopecurus myosuroides; test: as above; settings: application to foliage, application herbicide amount 320 g/ha
Procedure, shortened: as §2

[6] = system: Apera spica-venti.; test: as above; settings: application to foliage, application herbicide amount 320 g/ha
Procedure, shortened: as §2

[7] = system: Avena fatua; test: as above; settings: application to foliage, application herbicide amount 320 g/ha
Procedure, shortened: as §2

[8] = system: Chenopodium album; test: as above; settings: application to foliage, application herbicide amount 320 g/ha
Procedure, shortened: as §2

[9] = system: Digitaria ciliaris; test: as above; settings: application to foliage, application herbicide amount 320 g/ha
Procedure, shortened: as §2

[10] = system: Echinochloa crus-galli var. crus-galli; test: as above; settings: application to foliage, application herbicide amount 320 g/ha
Procedure, shortened: as §2

[11] = system: Galium spurium; test: as above; settings: application to foliage, application herbicide amount 320 g/ha
Procedure, shortened: as §2

[12] = system: Lolium multiflorum Lam.; test: as above; settings: application to foliage, application herbicide amount 320 g/ha
Procedure, shortened: as §2

[13] = system: Setaria viridis; test: as above; settings: application to foliage, application herbicide amount 320 g/ha
Procedure, shortened: as §2

[14] = system: Veronica persica; test: as above; settings: application to foliage, application herbicide amount 320 g/ha
Procedure, shortened: as §2

| SMILES | A: Echinochloa oryzicola Vasing. (herbicidal effect grade) [1] | C: Monochoria vaginalis (herbicidal effect grade) [2] | B: Scirpus juncoides (herbicidal effect grade) [3] | M (Abutilon theophrasti) herbicidal effect [4] | J (Alopecurus myosuroides) herbicidal effect [5] | L (Apera spica-venti.) herbicidal effect [6] | I (Avena fatua) herbicidal effect [7] | O (Chenopodium album) herbicidal effect [8] | F (Digitaria ciliaris) herbicidal effect [9] | H (Echinochloa crus-galli var. crus-galli) herbicidal effect [10] | Q (Galium spurium) herbicidal effect [11] | K (Lolium multiflorum Lam.) herbicidal effect [12] | G (Setaria viridis) herbicidal effect [13] | R (Veronica persica) herbicidal effect [14] |
| --- | --- | --- | --- | --- | --- | --- | --- | --- | --- | --- | --- | --- | --- | --- |
| CCc1nnc(NC(=O)c2ccc(C(F)(F)F)n3c(C(C)C)nnc23)o1 [1-005] | 5 (Herbicidal ratio of 90% or more (almost completely withered)) | 4 (Herbicidal ratio of 70% or more and less than 90%) | 4 (Herbicidal ratio of 70% or more and less than 90%) | 4 (Herbicidal ratio of 70% or more and less than 90%) | 0 (Herbicidal ratio of 5% or less (almost no effect)) | 0 (Herbicidal ratio of 5% or less (almost no effect)) | 1 (Herbicidal ratio of 5% or more and less than 20%) | 5 (Herbicidal ratio of 90% or more (almost completely withered)) | 3 (Herbicidal ratio of 40% or more and less than 70%) | 4 (Herbicidal ratio of 70% or more and less than 90%) | 0 (Herbicidal ratio of 5% or less (almost no effect)) | 0 (Herbicidal ratio of 5% or less (almost no effect)) | 3 (Herbicidal ratio of 40% or more and less than 70%) | 3 (Herbicidal ratio of 40% or more and less than 70%) |
| CCC(CC)c1nnc2c(C(=O)Nc3nnc(C)o3)ccc(C(F)(F)F)n12 [1-011] | 5 (Herbicidal ratio of 90% or more (almost completely withered)) | 5 (Herbicidal ratio of 90% or more (almost completely withered)) | 4 (Herbicidal ratio of 70% or more and less than 90%) | 5 (Herbicidal ratio of 90% or more (almost completely withered)) | 1 (Herbicidal ratio of 5% or more and less than 20%) | 2 (Herbicidal ratio of 20% or more and less than 40%) | 1 (Herbicidal ratio of 5% or more and less than 20%) | 5 (Herbicidal ratio of 90% or more (almost completely withered)) | 5 (Herbicidal ratio of 90% or more (almost completely withered)) | 5 (Herbicidal ratio of 90% or more (almost completely withered)) | 2 (Herbicidal ratio of 20% or more and less than 40%) | 1 (Herbicidal ratio of 5% or more and less than 20%) | 4 (Herbicidal ratio of 70% or more and less than 90%) | 5 (Herbicidal ratio of 90% or more (almost completely withered)) |
| Cc1nnc(NC(=O)c2ccc(C(F)(F)F)n3c(-c4ccccc4)nnc23)o1 [1-012] | 5 (Herbicidal ratio of 90% or more (almost completely withered)) | 4 (Herbicidal ratio of 70% or more and less than 90%) | 3 (Herbicidal ratio of 40% or more and less than 70%) | 3 (Herbicidal ratio of 40% or more and less than 70%) | 0 (Herbicidal ratio of 5% or less (almost no effect)) | 1 (Herbicidal ratio of 5% or more and less than 20%) | 0 (Herbicidal ratio of 5% or less (almost no effect)) | 5 (Herbicidal ratio of 90% or more (almost completely withered)) | 3 (Herbicidal ratio of 40% or more and less than 70%) | 4 (Herbicidal ratio of 70% or more and less than 90%) | 2 (Herbicidal ratio of 20% or more and less than 40%) | 1 (Herbicidal ratio of 5% or more and less than 20%) | 4 (Herbicidal ratio of 70% or more and less than 90%) | 4 (Herbicidal ratio of 70% or more and less than 90%) |
| Cc1nnc(NC(=O)c2ccc(C(F)(F)F)n3c(Br)nnc23)o1 [1-014] | 5 (Herbicidal ratio of 90% or more (almost completely withered)) | 3 (Herbicidal ratio of 40% or more and less than 70%) | 4 (Herbicidal ratio of 70% or more and less than 90%) | 4 (Herbicidal ratio of 70% or more and less than 90%) | 1 (Herbicidal ratio of 5% or more and less than 20%) | 0 (Herbicidal ratio of 5% or less (almost no effect)) | 1 (Herbicidal ratio of 5% or more and less than 20%) | 5 (Herbicidal ratio of 90% or more (almost completely withered)) | 3 (Herbicidal ratio of 40% or more and less than 70%) | 4 (Herbicidal ratio of 70% or more and less than 90%) | 3 (Herbicidal ratio of 40% or more and less than 70%) | 1 (Herbicidal ratio of 5% or more and less than 20%) | 3 (Herbicidal ratio of 40% or more and less than 70%) | 4 (Herbicidal ratio of 70% or more and less than 90%) |
| COCc1nnc2c(C(=O)Nc3nnc(C)o3)ccc(C(F)(F)F)n12 [1-015] | 2 (Herbicidal ratio of 20% or more and less than 40%) | 3 (Herbicidal ratio of 40% or more and less than 70%) | 3 (Herbicidal ratio of 40% or more and less than 70%) | 5 (Herbicidal ratio of 90% or more (almost completely withered)) | 1 (Herbicidal ratio of 5% or more and less than 20%) | 3 (Herbicidal ratio of 40% or more and less than 70%) | 3 (Herbicidal ratio of 40% or more and less than 70%) | 5 (Herbicidal ratio of 90% or more (almost completely withered)) | 4 (Herbicidal ratio of 70% or more and less than 90%) | 5 (Herbicidal ratio of 90% or more (almost completely withered)) | 3 (Herbicidal ratio of 40% or more and less than 70%) | 1 (Herbicidal ratio of 5% or more and less than 20%) | 3 (Herbicidal ratio of 40% or more and less than 70%) | 5 (Herbicidal ratio of 90% or more (almost completely withered)) |
| COc1ccc(-c2nnc3c(C(=O)Nc4nnc(C)o4)ccc(C(F)(F)F)n23)cc1 [1-016] | 4 (Herbicidal ratio of 70% or more and less than 90%) | 0 (Herbicidal ratio of 5% or less (almost no effect)) | 0 (Herbicidal ratio of 5% or less (almost no effect)) | 5 (Herbicidal ratio of 90% or more (almost completely withered)) | 1 (Herbicidal ratio of 5% or more and less than 20%) | 0 (Herbicidal ratio of 5% or less (almost no effect)) | 1 (Herbicidal ratio of 5% or more and less than 20%) | 5 (Herbicidal ratio of 90% or more (almost completely withered)) | 4 (Herbicidal ratio of 70% or more and less than 90%) | 5 (Herbicidal ratio of 90% or more (almost completely withered)) | 2 (Herbicidal ratio of 20% or more and less than 40%) | 1 (Herbicidal ratio of 5% or more and less than 20%) | 2 (Herbicidal ratio of 20% or more and less than 40%) | 4 (Herbicidal ratio of 70% or more and less than 90%) |
| Cc1nnc(NC(=O)c2ccc(C(F)(F)F)n3c(-c4ccc(Cl)cc4)nnc23)o1 [1-017] | 3 (Herbicidal ratio of 40% or more and less than 70%) | 0 (Herbicidal ratio of 5% or less (almost no effect)) | 2 (Herbicidal ratio of 20% or more and less than 40%) | 5 (Herbicidal ratio of 90% or more (almost completely withered)) | 0 (Herbicidal ratio of 5% or less (almost no effect)) | 0 (Herbicidal ratio of 5% or less (almost no effect)) | 0 (Herbicidal ratio of 5% or less (almost no effect)) | 5 (Herbicidal ratio of 90% or more (almost completely withered)) | 3 (Herbicidal ratio of 40% or more and less than 70%) | 5 (Herbicidal ratio of 90% or more (almost completely withered)) | 0 (Herbicidal ratio of 5% or less (almost no effect)) | 0 (Herbicidal ratio of 5% or less (almost no effect)) | 0 (Herbicidal ratio of 5% or less (almost no effect)) | 4 (Herbicidal ratio of 70% or more and less than 90%) |
